Patent EP4703357A1, “TRIAZOLYL-CONTAINING COMPOUNDS” (Chia Tai Tianqing Pharmaceutical Group Co., Ltd., priority 2023, dated 2024)
Where two headings read alike, the source gives them in different places.

Key:
Jurkat cells = test: Inhibitory activity on Jurkat cell proliferation (CCK-8); format: cell-based; conditions: Homo sapiens, 72 h incubation
Experimental: (§1) Jurkat cells in a good growth state were collected into a centrifuge tube, adjusted to a cell density of 5 × 10^4 cells/mL, and seeded in a 96-well plate (100 µL/well). The cells were incubated overnight in a cell incubator. Compounds were added using a nanoliter pipettor such that the final concentrations of the compounds were 1000 nM-0.46 nM (the addition was performed in duplicate). Meanwhile, a control was set. After another 72 h of incubation in the cell incubator, the assay reagent CCK-8 (manufacturer: Dojindo Laboratories, Beijing; 10 µL/well) was added. After 2 h of incubation in the cell incubator, absorbance was measured at 450 nm on an Envision microplate reader. A four-parameter analysis was performed, a dose-response curve was fit, and IC50 was calculated.

OCI-LY10 cells = test: Inhibitory activity on OCI-LY10 cell proliferation (CCK-8); format: cell-based; conditions: Homo sapiens, 72 h incubation
Experimental: as §1, with “OCI-LY10 cells” for “Jurkat cells”, “of 9” for “of 5”

[1] = In vitro liver microsomal stability, human; format: in vitro ADME; conditions: human liver microsome 0.5 mg/mL, NADPH, 37 °C, 1 h
Experimental: (§2) Liver microsome incubation samples were prepared by mixing a PBS buffer (pH = 7.4), a liver microsome solution (0.5 mg/mL), a test compound, and an NADPH + MgCl2 solution, and incubated at 37 °C and 300 rpm for 1 h. Zero-hour samples were prepared by mixing a PBS buffer (pH = 7.4), a liver microsome solution (0.5 mg/mL), and a test compound. An acetonitrile solution containing an internal standard was added to the samples, and supernatants were prepared by protein precipitation, diluted, and then assayed by LC/MS/MS. Table 17. In vitro metabolic stability of related compounds in liver microsomes of various species

[2] = In vitro liver microsomal stability, mouse; format: in vitro ADME; conditions: mouse liver microsome 0.5 mg/mL, NADPH, 37 °C, 1 h
Experimental: as §2

Mouse pharmacokinetics [3] = format: in vivo; conditions: ICR, plasma, po, 3 mg/kg, Mice administered intragastrically 3 mpk; for AUC(0-t): read-out: AUC (0-24)
Experimental: ICR mice weighing 18-22 g were randomized into groups of 9 mice per group after 3-5 days of acclimatization and then administered intragastrically at a dose of 3 mg/kg.
Plasma samples to be tested were prepared by taking blood from the orbit at time points of 15 min, 30 min, 1 h, 2 h, 4 h, 6 h, 8 h, 10 h, and 24 h.
20 µL of each plasma sample to be tested and a standard curve sample were taken, and an acetonitrile solution containing an internal standard was added. A supernatant was obtained by protein precipitation, diluted, and then assayed by LC/MS/MS.
Pharmacokinetic parameters were fitted using a non-compartmental model.

Mouse pharmacokinetics [4] = format: in vivo, ICR mice; conditions: ICR, plasma; for AUC(0-t): read-out: AUC (0-24)
[5] = 1 mg/kg, Mice administered by single intravenous injection 1 mpk
[6] = po, 3 mg/kg, Mice administered intragastrically 3 mpk

| SMILES | IC50 (Jurkat cells) | IC50 (OCI-LY10 cells) | Human liver microsome Residuals at 60 min (%) [1] | Mouse liver microsome Residuals at 60 min (%) [2] | also measured |
| --- | --- | --- | --- | --- | --- |
| NC(=O)/C(=C/n1cnc(-c2cc(C3CC3)nc(C(F)(F)F)c2)n1)c1cncnc1 [Compound 13] | ≤ 20 nM | ≤ 40 nM | 93.23% | 91.15% |  |
| NC(=O)/C(=C/n1cnc(-c2cc(C3CC3)nc(C(F)(F)F)c2)n1)c1cnc(NCC(F)F)nc1 [Compound 14] | ≤ 20 nM | ≤ 40 nM | 80.48% | 83.14% |  |
| CC(F)(F)CNc1ncc(/C(=C\n2cnc(-c3cc(C(F)(F)F)nc(C(F)(F)F)c3)n2)C(N)=O)cn1 [3(3-A)] | ≤ 20 nM | ≤ 40 nM | 95.65% | 94.26% | Cmax (Mouse pharmacokinetics [3]): 681 ng/mL; Tmax (Mouse pharmacokinetics [3]): 3 h; half-life (Mouse pharmacokinetics [3]): 2.8 h; AUC(0-t) (Mouse pharmacokinetics [3]): 5280 ng·h/mL; AUC(0-inf) (Mouse pharmacokinetics [4]; [5]): 1570 ng·h/mL; clearance (Mouse pharmacokinetics [4]; [5]): 10.6 mL/min/kg; half-life (Mouse pharmacokinetics [4]; [5]): 1.66 h; AUC(0-t) (Mouse pharmacokinetics [4]; [5]): 1540 ng·h/mL; AUC(0-inf) (Mouse pharmacokinetics [4]; [6]): 5300 ng·h/mL |
| NC(=O)/C(=C/n1cnc(-c2cc(C(F)(F)F)nc(C(F)(F)F)c2)n1)c1cnc(NCC(F)(F)F)nc1 [Compound 4] | ≤ 20 nM | ≤ 40 nM | 100.33% | 93.27% |  |
| NC(=O)/C(=C/n1cnc(-c2cc(C3CC3)nc(C(F)(F)F)c2)n1)c1cnc(NCC(F)(F)F)nc1 [Compound 16] | ≤ 20 nM | ≤ 40 nM | 88.75% | 90.60% |  |
| N#Cc1cncc(/C(=C\n2cnc(-c3cc(C(F)(F)F)nc(C(F)(F)F)c3)n2)C(N)=O)c1 [Compound 10] | ≤ 20 nM | ≤ 40 nM | 95.75% | 93.99% |  |
| CC(F)(F)CNc1ncc(/C(=C\n2cnc(-c3cc(C4CC4)nc(C(F)(F)F)c3)n2)C(N)=O)cn1 [15(15-A)] | ≤ 20 nM | ≤ 40 nM | 87.55% | 88.38% | Cmax (Mouse pharmacokinetics [3]): 599 ng/mL; Tmax (Mouse pharmacokinetics [3]): 3 h; half-life (Mouse pharmacokinetics [3]): 3.48 h; AUC(0-t) (Mouse pharmacokinetics [3]): 4600 ng·h/mL; AUC(0-inf) (Mouse pharmacokinetics [4]; [5]): 1630 ng·h/mL; clearance (Mouse pharmacokinetics [4]; [5]): 10.2 mL/min/kg; half-life (Mouse pharmacokinetics [4]; [5]): 1.34 h; AUC(0-t) (Mouse pharmacokinetics [4]; [5]): 1620 ng·h/mL; AUC(0-inf) (Mouse pharmacokinetics [4]; [6]): 4650 ng·h/mL |
| Cc1ccc(/C(=C\n2cnc(-c3cc(C4CC4)nc(C(F)(F)F)c3)n2)C(N)=O)cn1 [38(38-A)] | ≤ 20 nM | ≤ 40 nM | 102.40% | 83.25% | Cmax (Mouse pharmacokinetics [3]): 874 ng/mL; Tmax (Mouse pharmacokinetics [3]): 1 h; half-life (Mouse pharmacokinetics [3]): 2.55 h; AUC(0-t) (Mouse pharmacokinetics [3]): 3480 ng·h/mL; AUC(0-inf) (Mouse pharmacokinetics [4]; [5]): 1040 ng·h/mL; clearance (Mouse pharmacokinetics [4]; [5]): 16 mL/min/kg; half-life (Mouse pharmacokinetics [4]; [5]): 1.41 h; AUC(0-t) (Mouse pharmacokinetics [4]; [5]): 1040 ng·h/mL; AUC(0-inf) (Mouse pharmacokinetics [4]; [6]): 3800 ng·h/mL |
| NC(=O)/C(=C/n1cnc(-c2cc(C3CC3)nc(C(F)(F)F)c2)n1)c1ccc2cccnc2c1 [59(59-A)] | ≤ 20 nM | ≤ 40 nM |  |  |  |
| NC(=O)C(=Cn1cnc(-c2cc(C(F)(F)F)nc(C(F)(F)F)c2)n1)c1cncnc1 [Compound 1] | ≤ 20 nM | ≤ 40 nM | 101.38% | 97.97% |  |
| NC(=O)/C(=C/n1cnc(-c2cc(C(F)(F)F)nc(C(F)(F)F)c2)n1)c1cnc(NCC(F)F)nc1 [2(2-A)] | ≤ 20 nM | ≤ 40 nM | 92.23% | 87.82% | Cmax (Mouse pharmacokinetics [3]): 483 ng/mL; Tmax (Mouse pharmacokinetics [3]): 3 h; half-life (Mouse pharmacokinetics [3]): 2.57 h; AUC(0-t) (Mouse pharmacokinetics [3]): 2730 ng·h/mL; AUC(0-inf) (Mouse pharmacokinetics [4]; [5]): 879 ng·h/mL; clearance (Mouse pharmacokinetics [4]; [5]): 19 mL/min/kg; half-life (Mouse pharmacokinetics [4]; [5]): 1.26 h; AUC(0-t) (Mouse pharmacokinetics [4]; [5]): 874 ng·h/mL; AUC(0-inf) (Mouse pharmacokinetics [4]; [6]): 2730 ng·h/mL |
| C[C@@H](Nc1ncc(/C(=C\n2cnc(-c3cc(C(F)(F)F)nc(C(F)(F)F)c3)n2)C(N)=O)cn1)C(F)(F)F [Compound 5] | ≤ 20 nM | ≤ 40 nM | 97.64% | 99.03% |  |

Further lines, with some results ahead:

| IC50 (Jurkat cells) | IC50 (OCI-LY10 cells) | Human liver microsome Residuals at 60 min (%) [1] | Mouse liver microsome Residuals at 60 min (%) [2] | SMILES | also measured |
| --- | --- | --- | --- | --- | --- |
| ≤ 20 nM | ≤ 40 nM | 96.64% | 90.27% | NC(=O)/C(=C/n1cnc(-c2cc(C3CC3)nc(C(F)(F)F)c2)n1)c1cnc2ccccc2c1 [Compound 26] |  |
| ≤ 20 nM | ≤ 40 nM | 93.92% | 95.11% | C[C@@H](Nc1ncc(/C(=C\n2cnc(-c3cc(C4CC4)nc(C(F)(F)F)c3)n2)C(N)=O)cn1)C(F)(F)F [Compound 17] |  |
| ≤ 20 nM | ≤ 40 nM |  |  | NC(=O)/C(=C/n1cnc(-c2cc(C3CC3)nc(C(F)(F)F)c2)n1)c1ccc(C(F)(F)F)nc1 [Compound 60] |  |
| ≤ 20 nM | ≤ 40 nM |  |  | NC(=O)/C(=C/n1cnc(-c2cc(C3CC3)nc(C(F)(F)F)c2)n1)c1ccnc(F)c1 [Compound 36] |  |
| ≤ 20 nM | ≤ 40 nM |  |  | NC(=O)/C(=C/n1cnc(-c2cc(C(F)(F)F)nc(C(F)(F)F)c2)n1)c1ccc(NCC(F)(F)F)nc1 [Compound 46] |  |
| ≤ 20 nM | ≤ 40 nM | 106.91% | 89.18% | NC(=O)/C(=C/n1cnc(-c2cc(C3CC3)nc(C(F)(F)F)c2)n1)c1ccc(F)nc1 [Compound 39] |  |
| ≤ 20 nM | ≤ 40 nM |  |  | NC(=O)/C(=C/n1cnc(-c2cc(C(F)(F)F)nc(C(F)(F)F)c2)n1)c1ccc(NCC(F)F)nc1 [Compound 54] |  |
| ≤ 20 nM | ≤ 40 nM |  |  | NC(=O)/C(=C/n1cnc(-c2cc(C(F)(F)F)nc(C(F)(F)F)c2)n1)c1ccc(C(F)(F)F)nc1 [Compound 53] |  |
| ≤ 20 nM | ≤ 40 nM |  |  | NC(=O)/C(=C/n1cnc(-c2cc(C3CC3)nc(C(F)(F)F)c2)n1)c1ccc(NCC(F)(F)F)nc1 [Compound 40] |  |
| ≤ 20 nM | ≤ 40 nM |  |  | NC(=O)/C(=C/n1cnc(-c2cc(C3CC3)nc(C(F)(F)F)c2)n1)c1ccncc1 [Compound 43] |  |
| ≤ 20 nM | ≤ 40 nM | 104.79% | 98.21% | NC(=O)/C(=C/n1cnc(-c2cc(C3CC3)nc(C(F)(F)F)c2)n1)c1cnc2cccnc2c1 [Compound 33] |  |
| ≤ 20 nM | ≤ 40 nM | 98.75% | 89.94% | N#Cc1cncc(/C(=C\n2cnc(-c3cc(C4CC4)nc(C(F)(F)F)c3)n2)C(N)=O)c1 [Compound 30] |  |
| ≤ 20 nM | ≤ 40 nM |  |  | NC(=O)/C(=C/n1cnc(-c2cc(C3CC3)nc(C(F)(F)F)c2)n1)c1ccc2ncccc2c1 [Compound 57] |  |
| ≤ 20 nM | ≤ 40 nM | 100.32% | 95.08% | NC(=O)/C(=C/n1cnc(-c2cc(C3CC3)nc(C(F)(F)F)c2)n1)c1cccnc1F [Compound 32] |  |
| ≤ 20 nM | ≤ 40 nM |  |  | NC(=O)/C(=C/n1cnc(-c2cc(C3CC3)nc(C(F)(F)F)c2)n1)c1ccc(NCC(F)F)nc1 [Compound 41] |  |
| ≤ 20 nM | ≤ 40 nM |  |  | NC(=O)/C(=C/n1cnc(-c2cc(C3CC3)nc(C(F)(F)F)c2)n1)c1cccc(F)n1 [Compound 37] |  |
